Results reported in article PMC8279409, “Novel Mixed NOP/Opioid Receptor Peptide Agonists” (Journal of Medicinal Chemistry, 2021).
Where “and” joins values, the source holds several entries; their conditions need not be identical. Equal entries are not always repeated. Where two headings read alike, the source gives them in different places. Where a SMILES comes first, the peptide text is derived from it. Where no end group is shown, it is not given here. [ ]: non-standard residue; d: D form. Phe(4-NO2) = N[C@@H](Cc1ccc([N+](=O)[O-])cc1)C(=O)O; Bip = N[C@@H](Cc1ccc(-c2ccccc2)cc1)C(=O)O; Phe(4-NH2) = Nc1ccc(C[C@H](N)C(=O)O)cc1; 1Nal = N[C@@H](Cc1cccc2ccccc12)C(=O)O; Dmt = Cc1cc(O)cc(C)c1C[C@H](N)C(=O)O; hPhe = N[C@@H](CCc1ccccc1)C(=O)O; Phg = N[C@H](C(=O)O)c1ccccc1; Nva = CCC[C@H](N)C(=O)O

How the values were obtained:
human mu receptor = biological target: T1, human mu receptor (Homo sapiens, UniProt P35372); test: Calcium mobilization, mu opioid receptor; assay type: cell-based; settings: for mu pEC50 (CL95%): CHO cells coexpressing human mu receptor and Gαqi5, Fluo-4 AM, 37 °C, mean of at least three experiments in duplicate, CL95% in brackets; for Emax / activation at 10 µM / mu Emax ± S.E.M.: percent over the baseline fluorescence; for Emax / mu Emax ± S.E.M.: mean ± SEM of at least three experiments in duplicate; for Emax / activation at 10 µM: SEM; for pEC50_mu: molecular formula strings CSV, repeats calcium mobilization values of Tables 1-3; for activation at 10 µM: read-out: mu effect at 10 μM (crc incomplete), Table 2 series, mean ± SEM
T1 construct: expressed in transfected cells; host or cells: CHO cells stably coexpressing the receptor and chimeric Gαqi5
T1 sequence (P35372 whole entry): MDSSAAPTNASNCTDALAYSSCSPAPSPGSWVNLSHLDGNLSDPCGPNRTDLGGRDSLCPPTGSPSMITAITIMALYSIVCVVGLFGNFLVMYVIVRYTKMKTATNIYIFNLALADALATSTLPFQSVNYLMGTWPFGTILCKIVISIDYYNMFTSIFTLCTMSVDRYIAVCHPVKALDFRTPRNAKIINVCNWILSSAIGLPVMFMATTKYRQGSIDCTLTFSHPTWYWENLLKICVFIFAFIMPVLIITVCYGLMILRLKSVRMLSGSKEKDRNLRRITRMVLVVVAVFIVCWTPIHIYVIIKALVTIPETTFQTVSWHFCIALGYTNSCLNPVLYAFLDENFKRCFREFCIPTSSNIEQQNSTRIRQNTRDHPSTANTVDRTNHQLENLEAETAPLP

human NOP receptor = biological target: T2, human NOP receptor (Homo sapiens, UniProt P41146); test: Calcium mobilization, NOP receptor; assay type: cell-based; settings: for NOP pEC50 (CL95%): CHO cells coexpressing human NOP and Gαqi5, Fluo-4 AM, 37 °C, mean of at least three experiments in duplicate, CL95% in brackets; for NOP/mu CR (concentration ratio): calcium mobilization, NOP versus mu; for Emax: mean ± SEM of at least three experiments in duplicate, SEM
T2 construct: expressed in transfected cells; host or cells: CHO cells stably coexpressing the receptor and chimeric Gαqi5
T2 sequence (P41146 whole entry): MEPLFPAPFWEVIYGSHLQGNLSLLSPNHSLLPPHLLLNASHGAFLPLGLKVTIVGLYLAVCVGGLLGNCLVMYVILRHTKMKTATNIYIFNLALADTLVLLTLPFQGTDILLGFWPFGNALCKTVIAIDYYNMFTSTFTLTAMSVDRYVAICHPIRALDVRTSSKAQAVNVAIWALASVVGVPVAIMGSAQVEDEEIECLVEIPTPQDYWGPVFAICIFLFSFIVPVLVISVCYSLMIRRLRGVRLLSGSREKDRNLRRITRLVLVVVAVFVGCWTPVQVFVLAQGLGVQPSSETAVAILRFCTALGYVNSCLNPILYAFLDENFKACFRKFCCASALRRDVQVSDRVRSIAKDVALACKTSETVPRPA
Experimental: CHO cells stably coexpressing the human NOP or kappa or the mu receptor and the C-terminally modified Gαqi5 and CHO cells coexpressing the delta receptor and the GαqG66Di5 protein were generated and cultured as described previously.[45],[46] Cells were maintained in Dulbecco’s modified Eagle’s medium/nutrient mixture F-12 (DEMEM/F-12) supplemented with 10% FBS, 100 U/mL penicillin and 100 μg/mL streptomycin, 100 μg/mL hygromicin B, and 200 μg/mL G418 and cultured at 37 °C in 5% CO2 humidified air. Cells were seeded at a density of 50,000 cells/well into 96-well black, clear-bottom plates. The following day, the cells were incubated with Hanks’ balanced salt solution (HBSS) supplemented with 2.5 mM probenecid, 3 μM of the calcium-sensitive fluorescent dye Fluo-4 AM, and 0.01% pluronic acid for 30 min at 37 °C. After that time, the loading solution was aspirated and 100 μL/well of HBSS supplemented with 20 mM HEPES, 2.5 mM probenecid, and 500 μM brilliant black was added. Serial dilutions were carried out in HBSS/HEPES (20 mM) buffer (containing 0.02% BSA fraction V). After placing both plates (cell culture and master plate) into the fluorometric imaging plate reader FlexStation II (Molecular Devices, Sunnyvale, CA), fluorescence changes were measured. On-line additions were carried out in a volume of 50 μL/well. To facilitate drug diffusion into the wells, the present studies were performed at 37 °C. Maximum change in fluorescence, expressed as percent over the baseline fluorescence, was used to determine agonist response.
The pharmacological terminology adopted in this paper is consistent with IUPHAR recommendations.[59] All data are expressed as the mean ± standard error of the mean (SEM) of at least three experiments performed in duplicate. […] Concentration-response curves to agonists were fitted to the classical four-parameter logistic nonlinear regression model:
Effect = Baseline + (Emax – Baseline)/(1 + 10^(LogEC50 – Log[compound]) × Hillslope). Curve fitting was performed using PRISM 6.0 (GraphPad Software Inc., San Diego).

[1] = read-out: mu Emax ± S.E.M., Table 2 series
[2] = read-out: NOP Emax ± S.E.M., Table 2 series, percent over the baseline fluorescence
[3] = read-out: mu Emax ± S.E.M., Table 3 series
[4] = read-out: NOP Emax ± S.E.M., Table 3 series, percent over the baseline fluorescence

Compound | mu pEC50 (CL95%) (human mu receptor; Table 2 series) | NOP pEC50 (CL95%) (human NOP receptor; Table 2 series) | NOP/mu CR (concentration ratio) (human NOP receptor; Table 2 series) | Emax (human NOP receptor; [2]) | pEC50_mu (human mu receptor) | activation at 10 µM (human mu receptor) | also measured
C[C@H](NC(=O)CNC(=O)[C@H](Cc1cccc2ccccc12)NC(=O)[C@H](Cc1ccccc1)NC(=O)CNC(=O)CNC(=O)[C@@H](N)Cc1ccc(O)cc1)C(=O)N[C@@H](CCCNC(=N)N)C(=O)N[C@@H](CCCCN)C(=O)N[C@@H](CO)C(=O)N[C@@H](C)C(=O)N[C@@H](CCCNC(=N)N)C(=O)N[C@@H](CCCCN)C(N)=O [Compound 25, [Tyr^1,1Nal^5]N/OFQ(1-13)-NH2] (H-YGGF[1Nal]GARKSARK-NH2) | 6.08 (5.67–6.49) | 7.17 (6.82–7.52) | 0.08 | 245 ± 16% |  |  | Emax (human mu receptor; [1]): 319 ± 31%
C[C@H](NC(=O)CNC(=O)[C@H](Cc1ccc(N)cc1)NC(=O)[C@H](Cc1ccccc1)NC(=O)CNC(=O)CNC(=O)[C@@H](N)Cc1ccc(O)cc1)C(=O)N[C@@H](CCCNC(=N)N)C(=O)N[C@@H](CCCCN)C(=O)N[C@@H](CO)C(=O)N[C@@H](C)C(=O)N[C@@H](CCCNC(=N)N)C(=O)N[C@@H](CCCCN)C(N)=O [Compound 27, [Tyr^1,(pNH2)Phe^5]N/OFQ(1-13)-NH2] (H-YGGF[Phe(4-NH2)]GARKSARK-NH2) |  |  |  | 274 ± 15% |  |  | Emax (human mu receptor; [1]): 329 ± 37%
C[C@H](NC(=O)CNC(=O)[C@H](CCc1ccccc1)NC(=O)[C@H](Cc1ccccc1)NC(=O)CNC(=O)CNC(=O)[C@@H](N)Cc1ccc(O)cc1)C(=O)N[C@@H](CCCNC(=N)N)C(=O)N[C@@H](CCCCN)C(=O)N[C@@H](CO)C(=O)N[C@@H](C)C(=O)N[C@@H](CCCNC(=N)N)C(=O)N[C@@H](CCCCN)C(N)=O [Compound 18, [Tyr^1,hPhe^5]N/OFQ(1-13)-NH2] (H-YGGF[hPhe]GARKSARK-NH2) | crc incomplete; 10 μM: 228 ± 29 | 8.70 (8.24–9.16) | 0.003 | 301 ± 26% | crc incomplete | 228 ± 29% | 
C[C@H](NC(=O)CNC(=O)[C@H](Cc1ccc([N+](=O)[O-])cc1)NC(=O)[C@H](Cc1ccccc1)NC(=O)CNC(=O)CNC(=O)[C@@H](N)Cc1ccc(O)cc1)C(=O)N[C@@H](CCCNC(=N)N)C(=O)N[C@@H](CCCCN)C(=O)N[C@@H](CO)C(=O)N[C@@H](C)C(=O)N[C@@H](CCCNC(=N)N)C(=O)N[C@@H](CCCCN)C(N)=O [Compound 22, [Tyr^1,(pNO2)Phe^5]N/OFQ(1-13)-NH2] (H-YGGF[Phe(4-NO2)]GARKSARK-NH2) | crc incomplete; 10 μM: 192 ± 64 |  |  | 305 ± 22% | crc incomplete | 192 ± 64% | 
Cc1cc(O)cc(C)c1C[C@H](N)C(=O)NCC(=O)NCC(=O)N[C@@H](Cc1ccccc1)C(=O)N[C@H](C(=O)NCC(=O)N[C@@H](C)C(=O)N[C@@H](CCCNC(=N)N)C(=O)N[C@@H](CCCCN)C(=O)N[C@@H](CO)C(=O)N[C@@H](C)C(=O)N[C@@H](CCCNC(=N)N)C(=O)N[C@@H](CCCCN)C(N)=O)[C@@H](C)O [Compound 29, [Dmt^1]N/OFQ(1-13)-NH2, reference compound] |  |  |  |  |  |  | Emax (human mu receptor; [3]): 311 ± 20%; Emax (human NOP receptor; [4]): 294 ± 22%
C[C@H](NC(=O)CNC(=O)[C@H](Cc1ccc(-c2ccccc2)cc1)NC(=O)[C@H](Cc1ccccc1)NC(=O)CNC(=O)CNC(=O)[C@@H](N)Cc1ccc(O)cc1)C(=O)N[C@@H](CCCNC(=N)N)C(=O)N[C@@H](CCCCN)C(=O)N[C@@H](CO)C(=O)N[C@@H](C)C(=O)N[C@@H](CCCNC(=N)N)C(=O)N[C@@H](CCCCN)C(N)=O [Compound 24, [Tyr^1,Bip^5]N/OFQ(1-13)-NH2] (H-YGGF[Bip]GARKSARK-NH2) | crc incomplete; 10 μM: 151 ± 66 | 6.93 (6.63–7.22) | 0.15 | 272 ± 29% | crc incomplete | 151 ± 66% | 
COc1ccc(C[C@H](NC(=O)[C@H](Cc2ccccc2)NC(=O)CNC(=O)CNC(=O)[C@@H](N)Cc2ccc(O)cc2)C(=O)NCC(=O)N[C@@H](C)C(=O)N[C@@H](CCCNC(=N)N)C(=O)N[C@@H](CCCCN)C(=O)N[C@@H](CO)C(=O)N[C@@H](C)C(=O)N[C@@H](CCCNC(=N)N)C(=O)N[C@@H](CCCCN)C(N)=O)cc1 [Compound 20, [Tyr^1,p(OCH3)Phe^5]N/OFQ(1-13)-NH2] (H-YGGFY(Me)GARKSARK-NH2) | crc incomplete; 10 μM: 221 ± 49 |  |  | 246 ± 18% | crc incomplete | 221 ± 49% | 
YGGFTGARKSARK-NH2 [Compound 3, [Tyr^1]N/OFQ(1-13)-NH2, reference compound] |  |  |  |  |  |  | EC50 (human mu receptor): 1580 nM; EC50 (human NOP receptor): 0.741 nM and 0.708 nM
C[C@H](NC(=O)CNC(=O)[C@@H](NC(=O)[C@H](Cc1ccccc1)NC(=O)CNC(=O)CNC(=O)[C@@H](N)Cc1ccc(O)cc1)c1ccccc1)C(=O)N[C@@H](CCCNC(=N)N)C(=O)N[C@@H](CCCCN)C(=O)N[C@@H](CO)C(=O)N[C@@H](C)C(=O)N[C@@H](CCCNC(=N)N)C(=O)N[C@@H](CCCCN)C(N)=O [Compound 19, [Tyr^1,Phg^5]N/OFQ(1-13)-NH2] (H-YGGF[Phg]GARKSARK-NH2) | 6.81 (6.33–7.29) | 7.57 (7.12–8.02) | 0.17 | 293 ± 31% |  |  | Emax (human mu receptor; [1]): 287 ± 48%
CCC[C@H](NC(=O)[C@H](Cc1ccccc1)NC(=O)CNC(=O)CNC(=O)[C@@H](N)Cc1ccc(O)cc1)C(=O)NCC(=O)N[C@@H](C)C(=O)N[C@@H](CCCNC(=N)N)C(=O)N[C@@H](CCCCN)C(=O)N[C@@H](CO)C(=O)N[C@@H](C)C(=O)N[C@@H](CCCNC(=N)N)C(=O)N[C@@H](CCCCN)C(N)=O [Compound 13, [Tyr^1,Nva^5]N/OFQ(1-13)-NH2] (H-YGGF[Nva]GARKSARK-NH2) |  |  |  |  |  |  | mu pEC50 (CL95%) (human mu receptor; Table 1 series): 6.25 (5.59–6.91); Emax (human mu receptor; read-out: mu Emax ± S.E.M, Table 1 series): 313 ± 19%; NOP pEC50 (CL95%) (human NOP receptor; Table 1 series, FlexStation II): 8.43 (7.55–9.31); NOP/mu CR (concentration ratio) (human NOP receptor; Table 1 series): 0.007; Emax (human NOP receptor; read-out: NOP Emax ± S.E.M., Table 1 series, maximum change in fluorescence as percent over the baseline fluorescence): 358 ± 14%
Cc1cc(O)cc(C)c1C[C@H](N)C(=O)NCC(=O)NCC(=O)N[C@@H](Cc1ccccc1)C(=O)N[C@@H](Cc1ccccc1)C(=O)NCC(=O)N[C@@H](C)C(=O)N[C@@H](CCCNC(=N)N)C(=O)N[C@@H](CCCCN)C(=O)N[C@@H](CO)C(=O)N[C@@H](C)C(=O)N[C@@H](CCCNC(=N)N)C(=O)N[C@@H](CCCCN)C(N)=O [Compound 31, [Dmt^1,Phe^5]N/OFQ(1-13)-NH2] (H-[Dmt]GGFFGARKSARK-NH2) |  |  |  |  |  |  | Emax (human mu receptor; [3]): 335 ± 22%; Emax (human NOP receptor; [4]): 277 ± 28%
C[C@H](NC(=O)CNC(=O)[C@@H](NC(=O)[C@H](Cc1ccccc1)NC(=O)CNC(=O)CNC(=O)[C@@H](N)Cc1ccccc1)[C@@H](C)O)C(=O)N[C@@H](CCCNC(=N)N)C(=O)N[C@@H](CCCCN)C(=O)N[C@@H](CO)C(=O)N[C@@H](C)C(=O)N[C@@H](CCCNC(=N)N)C(=O)N[C@@H](CCCCN)C(N)=O [Compound 1, N/OFQ(1-13)NH2, reference compound] | inactive |  |  |  | inactive |  | mu pEC50 (CL95%) (human mu receptor; Table 1 series): inactive; mu Emax ± S.E.M. (human mu receptor; Table 1 series): inactive; mu Emax ± S.E.M. (human mu receptor; Table 2 series): inactive; mu pEC50 (CL95%) (human mu receptor; Table 3 series): inactive; mu Emax ± S.E.M. (human mu receptor; Table 3 series): inactive
